Data as given in patent US20230277449A1, “ORAL CAVITY POLYMERIC DELIVERY SYSTEMS” (YISSUM RESEARCH DEVELOPMENT COMPANY OF THE HEBREW …, priority 2020, published 2023).
Where “and” joins values, the source holds several entries; their conditions need not be identical. Identical values can stand only once. Like-named read-outs stand apart in the source and are kept apart here. Values belong to the compound of their own block, whether it stands above or below them.

Experiments:
[1] = pig, in vivo, iv, 1 mg/kg
[2] = In-vivo oral mucosal administration of CBD and TPH in mucoadhesive shell to pigs
[3] = Monitored vital parameters after CBD and TPH administration to the mucosa of pigs; format: in vivo, pig; details: median (lowest - highest)
Description: Israel. […] Pigs were fasted overnight before the experiments. […] They were positioned on their back.

[4] = cited from earlier work
[5] = cited from earlier work; remark: listed apart in the source
[6] = Ex-vivo permeability of APO, MTP and ATN in Ussing diffusion chamber; format: in vitro ADME, pig; details: for Papp at 0.1 mM: n=3
Description: Each chamber includes a heating block for temperature control and needle valves for adjustment of carbogen gas flow for oxygenation and gas lift stirring. Buccal tissues of female pigs, ~100 kg, were used in the experiments. Pigs were exposed to anesthetic agents, antibiotics, contrast agents and sacrificed by over exposure to KC1. […] Immediately following euthanasia, buccal tissue was removed and placed in ice-cold modified Ringer’s buffer (pH 7.4). Buccal mucosa segments were trimmed to 800-1000 µm by surgical scissors and tweezers and mounted into Ussing diffusion chambers. The exposed tissue surface area was 0.5 cm^2 and buffered solutions volume in each cell was 3 ml. The system was preheated to 35° C. Modified Ringer buffer was added to the receiver compartment and simulated saliva buffer to the donor side. The tissue oxygenation and the solution mixing were performed by bubbling with carbogen gas. The system was equilibrated for 30 min followed by replacing the solutions and adding 20 µl of the test solutions to the donor side of the chamber to commence the experiment.
Solutions were freshly prepared on the days of the experiments. […] When testing the effect of organic solvents, 100 µl of the simulated saliva in the donor chamber were replaced by 100 µl of 1:1EtOH:PG solution. When testing the effect of NLF 70 µl of the simulated saliva in the donor chamber were replaced by 70 µl of NLF. […] The constituents are melted at 37° C. and mixed until a clear yellow homogenous solution is obtained.
3.1.3 Experimental protocol: 100 µl samples were taken from receiver compartment at the beginning of the experiments, at half an hour and every hour until the end of the experiments. 100 µl of fresh Ringer’s buffer solution were added each time to receiver compartment. The dilution of the concentration of tested substances in the receiver compartment was accounted for. […] All samples were stored at -20° C. pending analysis.
The analysis conditions were as follows: XTerra MS (Waters Inc.) C18 Column (3.5 µm, 2.1 mm × 100 mm), temperature 45° C., flow rate 0.2 ml/min and mobile phase with a linear gradient as detailed in Table 23.
Statistical significance was stated for p<0.05. […] Papp calculation and simulations of steady state plasma levels for in-vivo testing
Apparent permeability (Papp) is calculated by Eq. 5: […]

in vitro = details: female, pig, pH 7.4
[7] = in vivo
[8] = Insulin release from mucoadhesive tablets in physiologic media; format: physicochemical
Protocol: Peptides or proteins stabilized or encapsulated into nanoparticles, microparticles or liposomes were mixed in CP and HPC as described above and compressed into tablets. In a typical example, insulin zinc salt powder at 1% of the solids was added to the tablet composition and compressed into tablets. Insulin was released for 10 h from the tablets when placed in physiologic media. PLGA microspheres loaded with 50% insulin prepared by precipitation of concentrated alcoholic-dichloromethane solution into an anti-solvent, heptane. Particles at 10% of the non-active agents were added to the tablet powder and compressed into tablets. Anti-inflammatory protein such as Adiponectin, antimicrobial and antiviral proteins are also considered for buccal delivery.

Compound: CN1CCc2cccc3c2C1CC1=C3C(=O)C(=O)C=C1 (centres unmarked) [APO-quinone]
half-lives of metabolites [1]: 25.5 (±2.0) min

Compound: C=C(C)[C@@H]1CCC(C)=C[C@H]1c1c(O)cc(CCCCC)cc1O [CBD, cannabidiol]
Css ([2]; ~0.42 mg/kg CBD, 30.0 mg/ml, 8 h exposure): not reached | Diastolic blood press (mmHg) ([3]; CBD with TPH): 37 (29 - 46) mmHg | Heart rate (beats/min) ([3]; CBD with TPH): 98 (79 - 123) beats/min | O2 satur (%) ([3]; CBD with TPH): 99 (90 - 100) % | Respiration rate (min^-1) ([3]; CBD with TPH): 10 (10-13) min^-1 | Systolic blood press (mmHg) ([3]; CBD with TPH): 77 (68 - 87) mmHg | Rectal temp (°C) ([3]; CBD ~0.42 mg/kg with TPH ~0.11 mg/kg, three pigs): 37.4 (36.8 - 38.8) °C | steady state volume of distribution ([4]; humans, IV administration): 30 L/kg | aqueous solubility [5]: ~ 12 µg/ml and ~ 0.04 mM | log P [5]: ~ 6

Papp lower at pH 5.9 than at pH 7.4 [6]: 2 fold | Papp ([6]; female, pig, pH 7.4 with 3.33% v/v of 1:1 ethanol: propylene glycol solution, read-out: Apparent permeability (Papp)): 7.24 ×10⁻⁶ cm/s | Papp at 0.1 mM ([6]; female, pig, simulated saliva pH 5.9, mean (±SD), read-out: Apparent permeability (Papp)): 1.11 ×10⁻⁶ cm/s | Papp at 0.1 mM ([6]; female, pig, simulated saliva pH 7.4, standard 0.1 mM, mean (±SD), read-out: Apparent permeability (Papp)): 2.48 ×10⁻⁶ cm/s | Papp at 6 h (in vitro): 1.02 ×10⁻⁶ cm/s | Papp at 6 h, 34 µg/ml (in vitro): 9.89 ×10⁻⁶ cm/s
Compound: COCCc1ccc(OCC(O)CNC(C)C)cc1 (centres unmarked) [MTP, metoprolol]

Compound: Cn1c(=O)c2[nH]cnc2n(C)c1=O [TPH, theophylline]
TPH plateau higher than the highest plasma level of CBD ([2]; considering the molar dose administered): 300 fold | time to plateau of plasma levels (lag-time) ([2]; ~0.11 mg/kg TPH, 8.0 mg/ml, 1.58 cm^2, three pigs): 5 h | CL ([4]; in vivo): 0.283 to 0.67 mL/min/kg | log P [5]: ~ 0 | CL slower than CBD [7]: ~ 50 fold

Compound: Insulin: insulin zinc salt powder at 1% of the solids in CP and HPC tablets
duration of insulin release [8]: 10 h
